Measured values taken from patent US12571794B2, “Epigen AU/11: a natural matrix for restoring homeostasis in cancer cell-infiltrated tissue” (priority 2024, dated 2026).
Structures can show the parent of a compound that is named as a salt. Where two headings read alike, the source gives them in different places.

Tests used:
[1] = tested on: Head and Neck Cancer patient-derived tumour organoids; assay: EpigenAU/11 combinations with chemotherapeutics on patient-derived tumour organoids (summary table); assay type: cell-based; conditions: chemotherapy combined with EpigenAU/11
FaDu xenografts [2] = assay type: in vivo, mice; parameters: key to Loss of Straightening reflex / Loss of Cleaning / Loss of Curiosity / Loss of Reactivity / Loss of Spontaneous activity: untreated animal value = 0, plus treated animal value
Text: (§1) The risk (intended as side effects) was estimated through the observation of behavioural parameters (impacting the behaviour itself, the locomotor system, muscle strength and nervous reflexes) and through the potential weight loss of the animal.
Data obtained by animal testing, considered in the context of the risk, are behavioural parameters and body weight loss at the end of experimentation.
The behavioural parameters monitored are listed below: • 1. Loss of Spontaneous activity • 2. Loss of Cleaning • 3. Loss of Curiosity • 4. Loss of Reactivity • 5. Loss of Straightening reflex • 6. Loss of Physical strength • 7. Impairment of Palpebral opening • 8. Palpebral reflex • 9. Tremors • 10. Pallor • 11. Stereotypies • 12. Passivity
The values of the parameters 1-8 are normalized as: “Not treated animal value” (always equal to 0)+“Treated animal value”.
The values of the parameters 9-12 are normalized as: “Not treated animal value”-“Treated animal value”.
The potential weight loss of the treated animals was also assessed.” Data were processed using the formula: 1−[“Body weight of treated animals (day of observation: 27)/body weight of untreated animals (day of observation: 19)]
Data were calculated as “Reduction in the size of tumour mass” by the formula: 1−[“Tumour mass size collected from treated animals (day of observation: 27)/Tumour mass size collected from untreated animals (day of observation: 19)]

[3] = tested on: biopsies derived from the FaDu graft; assay: Genome-wide gene expression profiling, ex vivo; assay type: cell-based, human; conditions: 6 hours; EpigenAU/11 50 mg/ml, cisplatin 150 μg/ml, alone and combined
[4] = parameters: species or system mice; conditions: mouse, in vivo
Experimental: Furthermore, to better understand the potential systemic toxicity of the treatments, an Irwin test was conducted, evaluating a range of physiological and behavioural parameters, including general behaviour, CNS excitement, movement coordination, muscle tone, reflex responses, and autonomic signs.
Parameters assessed include general behaviour, central nervous system (CNS) excitement, movement coordination, muscle tone, reflex responses, and autonomic signs.
as §1

[5] = tested on: non-cancerous spheroids (MSC, HuDe); assay: 3D spheroids toxicity, Cell Titer-Glo 3D (ATP); assay type: cell-based, human; conditions: 72 hours; EpigenAU/11 0.22 mg/ml, CDDP 15 μg/ml
Text: Additionally, two 3D spheroids from non-cancerous cell lines were included in the study: • MSC (BM-derived Mesenchymal Stromal Cells): Multipotent stromal cells derived from bone marrow. • HuDe (Human Dermal Fibroblasts): Non-cancerous dermal fibroblast cells.

[6] = tested on: osteosarcoma spheroids (143B, SaOS-2, U-2 OS); assay: 3D spheroids toxicity, Cell Titer-Glo 3D (ATP); assay type: cell-based; conditions: 72 hours; EpigenAU/11 0.22 mg/ml, CDDP 15 μg/ml
Experimental: The Cell Titer-Glo® 3D Viability Assay was used to quantify ATP as a marker of cell viability. Results are expressed as the survival ratio (%) between treated cells and their corresponding untreated controls.
In addition to the findings above, several partners contributed to the development of more complex in vitro models, including 3D spheroids, which better mimic the three-dimensional structure of tumours and their microenvironment.
The viability of both control and treated cells was assessed 72 hours after the start of treatment by quantifying ATP levels using the Cell Titer-Glo® 3D Viability Assay following the manufacturer's instructions.

FaDu xenografts [7] = conditions: for MITOSIS (amount of mitosis in 2.37 mm^2; 10x): H&E staining of excised tumours
Experimental: Tumour growth curve of FaDu xenografts in athymic mice over 27 days of treatment. […] Tumour volume was measured every other day. Data are represented as mean±SEM; *p<0.05; **p<0.02. One-way ANOVA followed by Fisher's LSD test was used for statistical analysis.
In this investigation, an in vivo trial utilizing FaDu cells was performed to explore this interaction.
All treatments commenced when tumours reached a volume of 0.1 cm^3.
The response in mice was evaluated using criteria akin to RECIST 1.1 guidelines.
For this purpose, immunocompromised mice bearing xenografted FaDu head and neck squamous carcinoma cells were included in the study once tumours reached a volume of 100 mm^3.

[8] = tested on: bladder tumour organoid Bladder 41; assay: Tumour organoid viability with chemotherapeutics, CellTiter-Glo 3D; assay type: cell-based, human; conditions: Bladder Cancer patient-derived tumour organoids; chemotherapy combined with EpigenAU/11
Experimental: (§2) 39A bladder 38, 39B bladder 41, 39C breast 203, 39D Endometrium 12. […] Breast organoids (Breast 203): Treated sequentially with paclitaxel (P, 50 nM)+carboplatin (C, 100 nM) for 72 hours, followed by epirubicin (E, 1 μM)+cyclophosphamide (Cy 7 μM) for an additional 72 hours. Endometrial organoid (Endometrium 12): Treated with carboplatin (C, 100 nM), paclitaxel (P, 100 nM), or their combination for 72 hours. ATP content, measured by CellTiter-Glo® 3D, is expressed as a percentage of cell viability, with untreated controls set at 100%. Statistical analysis was performed using one-way ANOVA followed by Dunnett's test, with significant differences denoted by p<0.002 (**) and p<0.0001 (****). Data are presented as mean±SD.

[9] = tested on: explanted biopsies from A431 graft; assay: Ex vivo explanted biopsies, cell viability by flow cytometry (Annexin V); assay type: cell-based, human cells grown in immunocompromised mice; conditions: 72 hours ex vivo; EpigenAU/11 50 mg/ml (pH 5.6), cisplatin 150 μg/ml, HCl to pH 5.6
Experimental: Analysis of cell viability in explanted biopsies from the FaDu (9A) and A431 (9B) cell lines was performed after 72 hours of ex vivo treatment. […] Cell viability was analysed using a flow cytometer with the Pacific Blue™ Annexin V/SYTOX™ AADvanced™ Apoptosis Kit, following the manufacturer's instructions. Viability is expressed as a percentage, with untreated controls set at 100%. […] Data are represented as mean±SD; *p<0.03;***p<0.0002.
Analysis of cell viability in explanted biopsies from the A431 cell lines was performed after 72 hours of ex vivo treatment. […] Cell viability was analysed using a flow cytometer with the Pacific Blue™ Annexin V/SYTOX™ AADvanced™ Apoptosis Kit, following the manufacturer's instructions. Viability is expressed as a percentage, with untreated controls set at 100%. […] Data are represented as mean±SD; **p<0.02.
To further substantiate these findings, an ex vivo test was conducted using explanted biopsies from the FaDu and A431 cell lines. These biopsies were generated by injecting the cells into immunocompromised mice, thereby creating a more intricate three-dimensional structure that closely mimics the tumour microenvironment. […] Following the 72-hour treatment period, cell viability was analysed using flow cytometry.

A431 xenografts = assay type: in vivo, athymic mice; conditions: excised at end of 15-day treatment, six mice
Experimental: Tumour growth curve of A431 xenografts in athymic mice over 15 days of treatment. […] Tumour volume was measured every other day. Data are represented as mean±SEM; **p<0.02; ****p<0.001.
In this trial, athymic mice were subcutaneously injected with 1×10^6 A431 cells into their flank to develop xenograft tumours.

[10] = tested on: explanted biopsies from FaDu graft; assay type: cell-based, human cells grown in immunocompromised mice; conditions: 72 hours ex vivo; EpigenAU/11 50 mg/ml (pH 5.6), cisplatin 150 μg/ml, HCl to pH 5.6
Experimental: Analysis of cell viability in explanted biopsies from the FaDu (9A) and A431 (9B) cell lines was performed after 72 hours of ex vivo treatment. […] Cell viability was analysed using a flow cytometer with the Pacific Blue™ Annexin V/SYTOX™ AADvanced™ Apoptosis Kit, following the manufacturer's instructions. Viability is expressed as a percentage, with untreated controls set at 100%. One-way ANOVA analysis followed by Dunnett's test confirmed significant differences among the groups. Data are represented as mean±SD; *p<0.03;***p<0.0002.
(§3) Analysis of cell viability in explanted biopsies from the FaDu cell lines was performed after 72 hours of ex vivo treatment. […] Cell viability was analysed using a flow cytometer with the Pacific Blue™ Annexin V/SYTOX™ AADvanced™ Apoptosis Kit, following the manufacturer's instructions. Viability is expressed as a percentage, with untreated controls set at 100%. […]
as §3
Following the 72-hour treatment period, cell viability was analysed using flow cytometry.

[11] = tested on: endometrial tumour organoid Endometrium 12; conditions: 72 hours; EpigenAU/11 0.66 mg/ml, carboplatin 100 nM, paclitaxel 100 nM
Experimental: as §2

[12] = tested on: FaDu, A431 and HuDe cells; assay: Intracellular pH (pHrodo Green AM); assay type: cell-based, human; conditions: EpigenAU/11 0.66 mg/ml or HCl, one hour
Text: Cells were labelled with pHrodo™ Green AM Intracellular pH Indicator according to manufacturers' instructions. pH values were normalized with respect to cell number, measured by Nuclear Mask Red staining.

N.N.[Cl][Pt][Cl] [Cisplatin]
Cooperative Effect with EpigenAU/11 [1]: YES | Weight loss (FaDu xenografts [2]; 1−[body weight treated day 27/untreated day 19]): 0.22 | Reduction in the size of tumour mass (FaDu xenografts [2]; 1−[tumour mass size treated day 27/untreated day 19]): 0.64 | IN VIVO BENEFIT SCORE (FaDu xenografts [2]; mouse, in vivo): 0.64 | Impairment of Palpebral opening (FaDu xenografts [2]; normalised risk parameter): 2.00 | Loss of Cleaning (FaDu xenografts [2]; normalised risk parameter): 1.50 | Loss of Curiosity (FaDu xenografts [2]; normalised risk parameter): 1.60 | Loss of Palpebral reflex (FaDu xenografts [2]; normalised risk parameter): 1.20 | Loss of Physical strength (FaDu xenografts [2]; normalised risk parameter): 1.30 | Loss of Reactivity (FaDu xenografts [2]; normalised risk parameter): 1.40 | Loss of Spontaneous activity (FaDu xenografts [2]; normalised risk parameter): 1.80 | Loss of Straightening reflex (FaDu xenografts [2]; normalised risk parameter): 1.40 | Pallor (FaDu xenografts [2]; normalised risk parameter): 2.00 | Passivity (FaDu xenografts [2]; normalised risk parameter): 1.10 | Stereotypies (FaDu xenografts [2]; normalised risk parameter): 0.00 | Tremors (FaDu xenografts [2]; normalised risk parameter): 0.80 | IN VIVO RISK SCORE (FaDu xenografts [2]; sum of risk parameters): 16 | modulation of cancer-related pathways (gene expression) [3]: comparable downregulatory effect across many of the same pathways | reduction in overall biological functions [4]: 30-40% | viability (ATP levels) of healthy spheroids [5]: indiscriminately killed both cancerous and healthy cells | viability (ATP levels) of cancerous spheroids [6]: indiscriminately killed both cancerous and healthy cells | tumour progression (FaDu xenografts [7]; 27 days, cisplatin 2 mg/kg i.p. every two days): stabilization of the disease | MITOSIS (amount of mitosis in 2.37 mm^2; 10x) (FaDu xenografts [7]): 14 (±8) | MITOSIS (amount of mitosis in 2.37 mm^2; 10x) (FaDu xenografts [7]; listed as cisplatin): 14 | Size of tumor masses (Mean) (FaDu xenografts [7]; day of observation 27): 0.50 | MEAN tumour mass (FaDu xenografts [7]; explanted after 27 days of treatment, five mice): 454 mg | Body weight (Mean) (FaDu xenografts [7]; mouse, in vivo): 29.12 | Cooperative Effect with EpigenAU/11 [8]: YES | cell death [9]: around 30% | MEAN tumour mass (A431 xenografts): 368 mg | cell death [10]: around 25%

N.N.O=C([O-])C1(C(=O)[O-])CCC1.[Pt+2] [carboplatin]
viability (ATP, untreated = 100%) [11]: 85.1%

Cl [HCl, hydrochloric acid]
cell death [9]: no significant signs of cell death | intracellular pH [12]: no observable effects | cell death [10]: no significant signs of cell death
